Paper PMC11062894, “Protein-based bandpass filters for controlling cellular signaling with chemical inputs” (Nature Chemical Biology, 2023)
pEC50, pIC50, pKd: −log10 of the molar value. Several values for one entry are separate records, joined by “and”; a condition that tells them apart may be missing. Identical values can stand only once.

Assays:
[1] = target: BclXL–LD3 interaction (Homo sapiens, UniProt Q07817); assay: SPR drug competition assay, BclXL–LD3; assay type: binding; conditions: for Normalization of Response units / Response units: BclXL, Supp Fig 2a
Sequence of BclXL–LD3 interaction (Q07817 1-209 limits assumed): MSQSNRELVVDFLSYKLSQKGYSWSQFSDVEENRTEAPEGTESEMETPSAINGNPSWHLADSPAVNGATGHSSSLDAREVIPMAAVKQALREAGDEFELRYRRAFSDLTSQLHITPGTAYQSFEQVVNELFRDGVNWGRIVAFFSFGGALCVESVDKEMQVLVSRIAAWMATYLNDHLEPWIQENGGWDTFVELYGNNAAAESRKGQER

[2] = target: Bcl2–LD3 interaction (Homo sapiens, UniProt P10415); assay: SPR drug competition assay, Bcl2–LD3; assay type: binding; conditions: for Normalization of Response units / Response units: Bcl2, Supp Fig 2a
Sequence of Bcl2–LD3 interaction (P10415 1-207 limits assumed): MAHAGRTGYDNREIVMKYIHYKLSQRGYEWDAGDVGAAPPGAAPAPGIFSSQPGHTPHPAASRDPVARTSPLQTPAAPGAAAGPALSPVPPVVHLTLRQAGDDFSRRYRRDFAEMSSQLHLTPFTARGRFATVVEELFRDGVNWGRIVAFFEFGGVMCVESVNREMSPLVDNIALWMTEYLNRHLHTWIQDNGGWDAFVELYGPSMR
Protocol: Drug IC50 values for disrupting heterodimers were measured on a Biacore 8K device. A 5 µM portion of analyte was mixed with 10 µM of BclXL or Bcl2 inhibitors according to the analyte. The mixtures of analyte and drug were injected onto the LD3 immobilized channel.
(§1) Binding affinities of SPR drug competition assays were calculated using three-parameter nonlinear regression in GraphPad Prism (v.8.3.0). Representative data of cell assays are presented as individual values and mean values (bars). n = 3 refers to biological replicates. All IC50 or EC50 values of cell assays reported were calculated using four-parameter nonlinear regression ± s.d. Bandpass features of cutoff concentrations and Bandwidth90% were estimated based on the curve fitted using bell-shaped curve nonlinear regression in GraphPad Prism (v.8.3.0). […]
This assay is designed to test if the drug of interest can specifically disrupt the
interaction between LD3 and BclXL/Bcl2. The drug-receptors (Bcl2, BclXL) are immobilized on the
different channels of the sensor chip, then the binding sites are saturated with LD3. […]

[3] = target: GEMS with the dual-drug-controlled (A-1155463, venetoclax) switch (Bcl2 and BclXL–LD3) in HEK293T cells (Homo sapiens, UniProt P10415); assay: GEMS SEAP reporter assay, dual-drug-controlled (A-1155463, venetoclax) switch; assay type: cell-based; conditions: for SEAP (U/L): Figure 2c, ON-phase
Sequence of GEMS with the dual-drug-controlled (A-1155463, venetoclax) switch (Bcl2 and BclXL–LD3) in HEK293T cells (Q07817 whole entry): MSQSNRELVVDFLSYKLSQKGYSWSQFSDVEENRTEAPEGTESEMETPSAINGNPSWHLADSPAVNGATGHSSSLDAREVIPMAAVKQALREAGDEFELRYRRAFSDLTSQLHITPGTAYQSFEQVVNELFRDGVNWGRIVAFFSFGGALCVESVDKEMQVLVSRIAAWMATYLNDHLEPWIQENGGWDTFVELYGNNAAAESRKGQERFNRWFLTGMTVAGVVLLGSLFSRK
Sequence of GEMS with the dual-drug-controlled (A-1155463, venetoclax) switch (Bcl2 and BclXL–LD3) in HEK293T cells (P10415 whole entry): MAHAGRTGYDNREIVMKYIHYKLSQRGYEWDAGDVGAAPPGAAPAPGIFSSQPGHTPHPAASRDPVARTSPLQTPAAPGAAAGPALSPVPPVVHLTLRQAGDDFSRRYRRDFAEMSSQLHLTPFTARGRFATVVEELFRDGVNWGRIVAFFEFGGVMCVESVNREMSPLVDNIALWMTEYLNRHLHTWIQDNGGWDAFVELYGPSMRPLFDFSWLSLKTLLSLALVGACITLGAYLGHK
Description: In the first step, we sought to construct a dual-drug-controlled switch to test whether the ON and OFF switching processes can be combined in our receptor architecture. We used Bcl2 and BclXL as the orthogonal drug receptors, which interact with the LD3 protein and respond to their own specific inhibitors. In such a setting, the dual-drug-controlled switch will turn ON in response to one drug and OFF in response to the other, thus mimicking bandpass filtering behavior (Supplementary Fig. 1d). […] To test the switch behavior, we employed the generalizable extracellular molecule sensor (GEMS) platform, which senses extracellular molecules and thus regulates cell surface signaling pathways (Fig. 2a). This receptor platform is based on a mutated EpoR extracellular and transmembrane domain fused to an IL-6RB intracellular domain. Dimerization of EpoR extracellular domains is controlled by N-terminally fused inducible dimerization domains, which drive IL-6RB activation and STAT3 signaling. The Bcl2 and BclXL–LD3 complexes were fused to the extracellular EpoR domains. […] The dimerization of Bcl2 and LD3 causes EpoR extracellular domain dimerization and triggers JAK/STAT3 signaling. Active STAT3 drives the expression of a reporter protein (secreted alkaline phosphatase (SEAP)) controlled by a STAT3-dependent promoter.
(§2) HEK293T cells were seeded in a 96-well plate 24 h before transfection. The transfection mix in each well consisted of 3 ng of constitutive human CMV promoter driven mammalian STAT3 expression vector (PhCMV-STAT3-pA), 30 ng of STAT3-induced reporter expression (OStat3-PhCMVmin-SEAP-pA) and 50 ng of expression vectors for each GEMS receptor chain (PSV40-IgK-(drughigh receptor)-EpoRm-IL-6RBm-pA and PSV40-IgK-(druglow receptor-GGGGSX3-LD3)-EpoRm-IL-6RBm-pA). For the specific drughigh receptor and druglow receptor used in the different cellular assays, they are indicated as wild type or with mutations. Then, plasmid DNA was mixed with 50 μl opti-MEM (Thermo Fisher) and 600 ng of polyethyleneimine (Polysciences, catalog no. 24765-1). For drug treatment experiments, drugs were added 12 h post-transfection and incubated with cells for 24 h before the SEAP reporter detection assay.
(§3) SEAP activity (U l^−1) in cell culture supernatants was quantified by kinetic measurements at 405 nm (1 minute per measurement for 30 cycles) of absorbance increase due to phosphatase-mediated hydrolysis of para-nitrophenyl phosphate (pNPP).
Binding affinities of SPR drug competition assays were calculated using three-parameter nonlinear regression in GraphPad Prism (v.8.3.0). Representative data of cell assays are presented as individual values and mean values (bars). n = 3 refers to biological replicates. All IC50 or EC50 values of cell assays reported were calculated using four-parameter nonlinear regression ± s.d. Bandpass features of cutoff concentrations and Bandwidth90% were estimated based on the curve fitted using bell-shaped curve nonlinear regression in GraphPad Prism (v.8.3.0).

[4] = target: GEMS with the dual-drug-controlled (venetoclax, A-1155463) switch (BclXL and Bcl2–LD3) in HEK293T cells (Homo sapiens, UniProt P10415); assay: GEMS SEAP reporter assay, dual-drug-controlled (venetoclax, A-1155463) switch; assay type: cell-based; conditions: for SEAP (U/L): Figure 2f, OFF-phase
Sequence of GEMS with the dual-drug-controlled (venetoclax, A-1155463) switch (BclXL and Bcl2–LD3) in HEK293T cells (P10415 whole entry): as above
Sequence of GEMS with the dual-drug-controlled (venetoclax, A-1155463) switch (BclXL and Bcl2–LD3) in HEK293T cells (Q07817 whole entry, further chain): as the sequence (Q07817 whole entry) above
Protocol: as §2, §3, §1

[5] = target: BclXL; conditions: cited from earlier work
[6] = system: Bcl2; conditions: cited from earlier work
[7] = Independent repeat, A-1155463 1 nM
[8] = Independent repeat, A-1155463 10 nM
[9] = Independent repeat, A-1155463 31.6 nM
[10] = Independent repeat, A-1155463 100 nM
[11] = Representative, A-1155463 10 nM
[12] = Representative, A-1155463 31.6 nM
[13] = Representative, A-1155463 100 nM
[14] = Representative, A-1155463 316 nM

## CN(C)CC#Cc1ccc(OCCCc2sc(N3CCc4cccc(C(=O)Nc5nc6ccccc6s5)c4C3)nc2C(=O)O)c(F)c1 [A-1155463]
[1]; A11 0.01
  Normalization of Response units: 102.002
  Response units: 136.071
[1]; A11 0.1
  Normalization of Response units: 97.9313
  Response units: 130.64
[1]; A11 1
  Normalization of Response units: 94.098
  Response units: 125.527
[1]; A11 10
  Normalization of Response units: 84.7556
  Response units: 113.064
[1]; A11 100
  Normalization of Response units: 61.7671
  Response units: 82.3973
[1]; A11 1000
  Normalization of Response units: 27.7573
  Response units: 37.0282
[1]; A11 10000
  Normalization of Response units: 14.6141
  Response units: 19.4952
[1]; prevents BclXL from binding to LD3
  pIC50: 6.97
[2]; A11 0.01
  Normalization of Response units: 92.1843
  Response units: 21.2577
[2]; A11 0.1
  Normalization of Response units: 80.8291
  Response units: 18.6392
[2]; A11 1
  Normalization of Response units: 73.8912
  Response units: 17.0393
[2]; A11 10
  Normalization of Response units: 65.6037
  Response units: 15.1282
[2]; A11 100
  Normalization of Response units: 63.1974
  Response units: 14.5733
[2]; A11 1000
  Normalization of Response units: 71.7979
  Response units: 16.5566
[2]; A11 10000
  Normalization of Response units: 76.7051
  Response units: 17.6882
[2]; SPR drug competition
  effect on the Bcl2–LD3 interaction: does not affect
[3]; A-1155463 dose response, SEAP, read-out: EC50 of the ON phase
  pEC50: 7.64
[3]; [7]
  SEAP (U/L): 42.7182 U/L and 41.8919 U/L and 38.4512 U/L
[3]; [8]
  SEAP (U/L): 156.072 U/L and 146.503 U/L and 188.411 U/L
[3]; [9]
  SEAP (U/L): 331.126 U/L and 300.096 U/L and 322.732 U/L
[3]; [10]
  SEAP (U/L): 407.571 U/L and 388.702 U/L and 469.003 U/L
[3]; Representative, A-1155463 1 nM
  SEAP (U/L): 15.8426 U/L and 13.5232 U/L and 13.6294 U/L
[3]; [11]
  SEAP (U/L): 26.67 U/L and 26.9995 U/L and 28.8916 U/L
[3]; [12]
  SEAP (U/L): 53.4598 U/L and 53.7585 U/L and 50.2237 U/L
[3]; [13]
  SEAP (U/L): 77.0863 U/L and 99.712 U/L and 86.8586 U/L
[3]; [14]
  SEAP (U/L): 74.2135 U/L
[4]; A-1155463-controlled OFF phase
  pIC50: 6.99
[4]; Fig 2e
  decrease in the OFF phase: close to tenfold
[4]; Independent repeat2, A-1155463 0.001 nM
  SEAP (U/L): 136.822 U/L and 169.801 U/L and 176.875 U/L
[4]; Independent repeat2, A-1155463 0.1 nM
  SEAP (U/L): 103.12 U/L and 204.542 U/L and 189.519 U/L
[4]; Independent repeat2, A-1155463 1 nM
  SEAP (U/L): 92.9798 U/L and 167.805 U/L and 150.91 U/L
[4]; Independent repeat2, A-1155463 10 nM
  SEAP (U/L): 77.7029 U/L and 130.847 U/L and 121.179 U/L
[4]; Independent repeat2, A-1155463 31.6 nM
  SEAP (U/L): 58.2163 U/L and 85.6507 U/L and 74.3645 U/L
[4]; Independent repeat2, A-1155463 100 nM
  SEAP (U/L): 37.6382 U/L and 39.3259 U/L and 34.7513 U/L
[4]; Independent repeat2, A-1155463 316 nM
  SEAP (U/L): 10.089 U/L and 12.1866 U/L and 9.268 U/L
[4]; Independent repeat2, A-1155463 1000 nM
  SEAP (U/L): 8.119 U/L and 8.577 U/L and 7.014 U/L
[4]; Independent repeat, A-1155463 0.001 nM
  SEAP (U/L): 544.306 U/L and 608.147 U/L and 640.878 U/L
[4]; Independent repeat, A-1155463 0.01 nM
  SEAP (U/L): 596.894 U/L and 605.557 U/L and 647.084 U/L
[4]; Independent repeat, A-1155463 0.1 nM
  SEAP (U/L): 460.121 U/L and 563.478 U/L and 550.17 U/L
[4]; [7]
  SEAP (U/L): 534.525 U/L and 587.537 U/L and 614.263 U/L
[4]; [8]
  SEAP (U/L): 528.461 U/L and 563.236 U/L and 515.428 U/L
[4]; [9]
  SEAP (U/L): 441.716 U/L and 544.633 U/L and 570.455 U/L
[4]; [10]
  SEAP (U/L): 308.86 U/L and 496.735 U/L and 439.283 U/L
[4]; Independent repeat, A-1155463 316 nM
  SEAP (U/L): 344.351 U/L and 390.049 U/L and 370.506 U/L
[4]; Representative, A-1155463 0.001 nM
  SEAP (U/L): 452.056 U/L and 640.781 U/L and 545.972 U/L
[4]; Representative, A-1155463 0.01 nM
  SEAP (U/L): 482.724 U/L and 651.317 U/L and 591.102 U/L
[4]; Representative, A-1155463 0.1 nM
  SEAP (U/L): 443.461 U/L and 562.309 U/L and 475.562 U/L
[4]; Representative, A-1155463 1 nM
  SEAP (U/L): 415.408 U/L and 516.033 U/L and 492.483 U/L
[4]; [11]
  SEAP (U/L): 401.724 U/L and 506.387 U/L and 481.044 U/L
[4]; [12]
  SEAP (U/L): 379.199 U/L and 421.639 U/L and 391.615 U/L
[4]; [13]
  SEAP (U/L): 206.108 U/L and 261.394 U/L and 267.779 U/L
[4]; [14]
  SEAP (U/L): 72.1001 U/L and 78.6193 U/L and 80.8054 U/L
[4]; Representative, A-1155463 1000 nM
  SEAP (U/L): 15.1572 U/L and 16.9337 U/L and 16.4073 U/L
[5]
  pKd: > 11.00
[6]
  binding to Bcl2 weaker than to BclXL: more than 7,000 fold
